38 molecules from US8354419B2, “Benzimidazole analogues for the treatment or prevention of flavivirus infections” (Vertex Pharmaceuticals Incorporated, priority 2009, dated 2013) can be followed below.

Where only a bound is given, the exact number is not on record here.

The first experiment has as its system HCV (Ib) RNA replication. Briefly: Cell-based luciferase reporter HCV (1b) RNA replication assay (replicon cell lines Huh-7 5.2 and ET). Set-up: species or system Hepatitis C virus. The following applies: HCV 1b genotype replicon, luciferase readout, 4 days incubation; read-out: EC50_1b. In short, it runs like this: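 Compounds were tested at eleven concentrations in duplicate over 4 days at 37 °C, 5% CO2. The cells were luciferase-reporter HCV 1b replicon lines 5.2 (NS5A adaptive mutation) or ET (NS4B mutation). Luminescence of lysates was measured, and IC50s were derived by nonlinear curve fitting.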
Background: A reporter such as luciferase makes a cellular process visible.
`COC(=O)N[C@H](C(=O)N1CC2CC2C1c1nc2cc(-c3ccc(-c4ccc5[nH]c(C6C7CC7CN6C(=O)[C@@H](NC(=O)OC)C(C)C)nc5c4)cc3)ccc2[nH]1)C(C)C` (some centres unmarked) [Compound 244]: the EC50 is at most 5 nM.

The experiment is the same for the next values; noted with them: Hepatitis C virus, Huh-7, 96 h, HCV 1b genotype replicon, luciferase readout, 4 days incubation; read-out: EC50_1b.
For `COC(=O)N[C@H](C(=O)N1C[C@@H](C)C[C@H]1c1nc2cc(-c3ccc(-c4ccc5[nH]c([C@@H]6C[C@H](C)CN6C(=O)[C@@H](NC(=O)OC)C(C)C)nc5c4)c(C)c3)ccc2[nH]1)C(C)C` [Compound 237], the EC50 was at most 5 nM. Still for that read-out and setting: the same measure for `COC(=O)N[C@H](C(=O)N1CCC[C@H]1c1nc2ccc(-c3cn(C)c(-c4ccc5nc([C@@H]6CCCN6C(=O)[C@@H](NC(=O)OC)C(C)C)[nH]c5c4)n3)cc2[nH]1)C(C)C` [Compound 238]: 5 to 5000 nM; for `COC(=O)N[C@H](C(=O)N1[C@@H]2C[C@@H]2C[C@H]1c1nc2cc(-c3ccc(-c4ccc5[nH]c([C@@H]6C[C@H]7C[C@H]7N6C(=O)[C@@H](NC(=O)OC)C(C)C)nc5c4)cc3)ccc2[nH]1)C(C)C` [Compound 240]: at most 5 nM; for `COC(=O)N[C@H](C(=O)N1CCC[C@H]1c1nc2cc(-c3ccc(-c4ccc5[nH]c([C@@H]6CCCN6C(=O)[C@@H](Nc6ncccn6)C(C)C)nc5c4)cc3)ccc2[nH]1)C(C)C` [Compound 241]: at most 5 nM.

On to `COC(=O)N[C@H](C(=O)N1C[C@@H](C)C[C@H]1c1nc2cc(-c3ccc(-c4ccc5[nH]c([C@@H]6C[C@H](C)CN6C(=O)[C@@H](NC(=O)OC)C(C)C)nc5c4)c(F)c3)ccc2[nH]1)C(C)C` [Compound 242], for which the EC50 was at most 5 nM. Regarding `COC(=O)N[C@H](C(=O)N1CC2CC2C1c1nc2cc(-c3ccc(-c4ccc5[nH]c(C6C7CC7CN6C(=O)[C@@H](NC(=O)OC)C(C)C)nc5c4)cc3)ccc2[nH]1)C(C)C` (some centres unmarked) [Compound 243], the EC50 is at most 5 nM. Consider `COC(=O)N[C@H](C(=O)N1CC2(CC2)C[C@H]1c1nc2cc(-c3ccc(-c4ccc5[nH]c([C@@H]6CC7(CC7)CN6C(=O)[C@@H](NC(=O)OC)C(C)C)nc5c4)cc3)ccc2[nH]1)C(C)C` [Compound 245], for which the EC50 is at most 5 nM. With `COC(=O)N[C@H](C(=O)N1C[C@@H](C)C[C@H]1c1nc2cc(-c3ccc(-c4ccc5nc([C@@H]6C[C@@H](O)CN6C(=O)[C@H](NC(=O)OC)C(C)C)[nH]c5c4)cc3)ccc2[nH]1)C(C)C` [Compound 246], the EC50 was at most 5 nM. Still for that read-out and setting: the same measure for `COC(=O)N(C)[C@H](C(=O)N1C[C@@H](C)C[C@H]1c1nc2cc(-c3ccc(-c4ccc5[nH]c([C@@H]6C[C@H](C)CN6C(=O)[C@H](C(C)C)N(C)C(=O)OC)nc5c4)cc3)ccc2[nH]1)C(C)C` [Compound 247]: at most 5 nM; for `COC(=O)N[C@H](C(=O)N1C[C@H](C)C[C@H]1c1nc2cc(-c3ccc(-c4ccc5[nH]c([C@@H]6C[C@@H](C)CN6C(=O)[C@@H](NC(=O)OC)C(C)C)nc5c4)cc3)ccc2[nH]1)C(C)C` [Compound 248]: at most 5 nM.

In the case of `COC(=O)N[C@H](C(=O)N1CCC[C@@]1(C)c1nc2cc(-c3ccc(-c4ccc5[nH]c([C@]6(C)CCCN6C(=O)[C@@H](NC(=O)OC)C(C)C)nc5c4)cc3)ccc2[nH]1)C(C)C` [Compound 249], the EC50 is at most 5 nM.

Turning to `COC(=O)N[C@H](C(=O)N1CCC[C@H]1c1nc2c(F)cc(-c3ccc(-c4cc(F)c5nc([C@@H]6CCCN6C(=O)[C@@H](NC(=O)OC)C(C)C)[nH]c5c4)cc3)cc2[nH]1)C(C)C` [Compound 250], the EC50 is at most 5 nM. `COC(=O)N[C@H](C(=O)N1C[C@@H](C)C[C@H]1c1nc2cc(C#CC#Cc3ccc4[nH]c([C@@H]5C[C@H](C)CN5C(=O)[C@@H](NC(=O)OC)C(C)C)nc4c3)ccc2[nH]1)C(C)C` [Compound 251]: the EC50 was at most 5 nM. Take `COC(=O)N[C@H](C(=O)N1C[C@@H](C)C[C@H]1c1nc2cc(-c3cc(C)c(-c4ccc5[nH]c([C@@H]6C[C@H](C)CN6C(=O)[C@@H](NC(=O)OC)C(C)C)nc5c4)cc3C)ccc2[nH]1)C(C)C` [Compound 252]: the EC50 was at most 5 nM. Regarding `COC(=O)N[C@H](C(=O)N1C[C@@H](C)C[C@H]1c1nc2cc(-c3ccc(-c4ccc5[nH]c([C@@H]6C[C@H](C)CN6C(=O)[C@H](C(C)C)N(C)C(=O)OC)nc5c4)cc3)ccc2[nH]1)C(C)C` [Compound 253], the EC50 was at most 5 nM. With `COC(=O)N[C@H](C(=O)N1CCC[C@H]1c1nc2c(F)cc(-c3ccc(-c4cc(F)c5nc([C@@H]6CCCN6C(=O)[C@@H](NC(=O)OC)C(C)C)[nH]c5c4)c(C)c3)cc2[nH]1)C(C)C` [Compound 254], the EC50 was at most 5 nM. Consider `COC(=O)N[C@H](C(=O)N1CCC[C@H]1c1nc2cc(-c3ccc(-c4ccc5nc([C@@H]6CCCN6C(=O)[C@@H](NC(=O)OC)C(C)C)n(C)c5c4)cc3)ccc2[nH]1)C(C)C` [Compound 255], for which the EC50 is at most 5 nM. With `Cn1c(C2CCCN2C(=O)OC(C)(C)C)nc2ccc(-c3ccc(-c4ccc5[nH]c(C6CCCN6C(=O)OC(C)(C)C)nc5c4)cc3)cc21` (centres unmarked) [Compound 256], the EC50 was in the range of 5 to 5000 nM. With `Cn1c([C@@H]2CCCN2C(=O)OC(C)(C)C)nc2ccc(-c3ccc(-c4ccc5nc([C@@H]6CCCN6C(=O)OC(C)(C)C)n(C)c5c4)cc3)cc21` [Compound 257], the EC50 was 5 to 5000 nM. Turning to `COC(=O)N[C@H](C(=O)N1CCC[C@H]1c1nc2ccc(N3C[C@H](C)N(c4ccc5nc([C@@H]6CCCN6C(=O)[C@@H](NC(=O)OC)C(C)C)[nH]c5c4)C[C@H]3C)cc2[nH]1)C(C)C` [Compound 258], the EC50 was at most 5 nM. For the molecule `COC(=O)N[C@H](C(=O)N1CCC[C@H]1c1nc2ccc(-c3ccc(-c4ccc5nc([C@@H]6CCCN6C(=O)[C@@H](NC(=O)OC)C(C)C)n(C)c5c4)cc3)cc2n1C)C(C)C` [Compound 259], the EC50 was at most 5 nM.

On to `COC(=O)N(C)[C@H](C(=O)N1C[C@@H](C)C[C@H]1c1nc2cc(-c3cc4sc(-c5ccc6[nH]c([C@@H]7C[C@H](C)CN7C(=O)[C@H](C(C)C)N(C)C(=O)OC)nc6c5)cc4s3)ccc2[nH]1)C(C)C` [Compound 260], for which the EC50 was at most 5 nM. On the same count and under the same terms, to `COC(=O)N[C@H](C(=O)N1C[C@H](C)C[C@H]1c1nc2cc(-c3ccc(-c4ccc5[nH]c([C@@H]6C[C@@H](C)CN6C(=O)[C@@H](NC(=O)OC)C(C)C)nc5c4)c(C)c3)ccc2[nH]1)C(C)C` [Compound 261] belongs at most 5 nM; to `COC(=O)N[C@H](C(=O)N1C[C@@H](C)C[C@H]1c1nc2cc(-c3ccc(-c4ccc5[nH]c([C@@H]6C[C@H](C)CN6C(=O)[C@@H](Nc6ncccn6)C(C)C)nc5c4)cc3)ccc2[nH]1)C(C)C` [Compound 262], at most 5 nM; to `COC(=O)N[C@H](C(=O)N1C[C@@H](C)C[C@H]1c1nc2ccc(-c3ccc(-c4ccc(-c5ccc6nc([C@@H]7C[C@H](C)CN7C(=O)[C@@H](NC(=O)OC)C(C)C)[nH]c6c5)cc4)cc3)cc2[nH]1)C(C)C` [Compound 263], at most 5 nM.

As to `COC(=O)N[C@H](C(=O)N1C[C@@H](C)C[C@H]1c1nc2cc(-c3cc4sc(-c5ccc6[nH]c([C@@H]7C[C@H](C)CN7C(=O)[C@H](C(C)C)N(C)C(=O)OC)nc6c5)cc4s3)ccc2[nH]1)C(C)C` [Compound 264], the EC50 is at most 5 nM. `COC(=O)N[C@H](C(=O)N1C[C@@H](O)C[C@H]1c1nc2cc(-c3ccc(-c4ccc5[nH]c([C@@H]6C[C@H](O)CN6C(=O)[C@@H](NC(=O)OC)C(C)C)nc5c4)c(C)c3)ccc2[nH]1)C(C)C` [Compound 265]: the EC50 was at most 5 nM.

As for `COC(=O)N(C)[C@H](C(=O)N1C[C@@H](C)C[C@H]1c1nc2cc(-c3ccc(-c4ccc5[nH]c([C@@H]6C[C@H](C)CN6C(=O)[C@H](C(C)C)N(C)C(=O)OC)nc5c4)c(C)c3)ccc2[nH]1)C(C)C` [Compound 266], the EC50 was at most 5 nM.

In the case of `COC(=O)N[C@H](C(=O)N1CC[C@H](C)[C@H]1c1nc2cc(-c3ccc(-c4ccc5[nH]c([C@@H]6[C@@H](C)CCN6C(=O)[C@@H](NC(=O)OC)C(C)C)nc5c4)cc3)ccc2[nH]1)C(C)C` [Compound 267], the EC50 is at most 5 nM. Take `COC(=O)N[C@H](C(=O)N1C[C@@H](C)C[C@H]1c1nc2cc(-c3ccc(-c4ccc5[nH]c([C@@H]6C[C@H](C)CN6C(=O)[C@@H](NC(=O)OC)C(C)C)nc5c4)c(C(=O)OC)c3)ccc2[nH]1)C(C)C` [Compound 268]: the EC50 is at most 5 nM.

As for `COC(=O)N[C@H](C(=O)N1C(C)CC[C@H]1c1nc2cc(-c3ccc(-c4ccc5[nH]c([C@@H]6CCC(C)N6C(=O)[C@@H](NC(=O)OC)C(C)C)nc5c4)cc3)ccc2[nH]1)C(C)C` (some centres unmarked) [Compound 269], the EC50 was at most 5 nM. `COC(=O)N[C@H](C(=O)N1C[C@@H](C)C[C@H]1c1nc2cc(-c3ccc(-c4ccc5nc([C@@H]6C[C@H](C)CN6C(=O)[C@@H](NC(=O)OC)C(C)C)[nH]c5c4)cc3C(=O)O)ccc2[nH]1)C(C)C` [Compound 270]: the EC50 lay within 5 to 5000 nM.

As to `COC(=O)N[C@H](C(=O)N1C[C@@H](C)C[C@H]1c1nc2cc(-c3ccc(-c4ccc5nc([C@@H]6CCCN6C(=O)[C@@H](NC(=O)OC)C(C)C)n(C)c5c4)cc3)ccc2[nH]1)C(C)C` [Compound 271], the EC50 is at most 5 nM. As to `COC(=O)N[C@H](C(=O)N1CCC[C@H]1c1nc2cc(-c3ccc(-c4ccc5[nH]c([C@@H]6C[C@H](C)CN6C(=O)[C@@H](NC(=O)OC)C(C)C)nc5c4)cc3)ccc2[nH]1)C(C)C` [Compound 272], the EC50 is at most 5 nM. In the case of `CC(C)(C)OC(=O)N1CCC[C@H]1c1nc2cc(N3CCCN(c4ccc5nc([C@@H]6CCCN6C(=O)OC(C)(C)C)[nH]c5c4)CC3)ccc2[nH]1` [Compound 273], the EC50 was above 5000 nM. On to `COC(=O)N(C)[C@H](C(=O)N1C[C@@H](C)C[C@H]1c1nc2ccc(C#CC#Cc3ccc4nc([C@@H]5C[C@H](C)CN5C(=O)[C@H](C(C)C)N(C)C(=O)OC)[nH]c4c3)cc2[nH]1)C(C)C` [Compound 274], for which the EC50 is at most 5 nM. As to `C[C@H]1CN(c2ccc3nc([C@@H]4CCCN4C(=O)OC(C)(C)C)[nH]c3c2)CCN1c1ccc2nc([C@@H]3CCCN3C(=O)OC(C)(C)C)[nH]c2c1` [Compound 275], the EC50 fell in the range of 5 to 5000 nM.
